Values after ≈ are worked out from the molar mass of the structure shown.
What was measured:
[1] = Metabolism stability test (human liver microsomes); type: in vitro ADME; conditions: compound concentration 0.5 μmol/L, 37° C., 30 minutes, NADPH
Method: Using commercially available pooled human hepatic microsomes, the compound of the present invention was reacted for a constant time, a remaining rate was calculated by comparing a reacted sample and an unreacted sample, thereby, a degree of metabolism of the compound of the present invention in liver was assessed.
A reaction was performed (oxidative reaction) at 37° C. for 0 minute or 30 minutes in the presence of 1 mmol/L NADPH in 0.2 mL of a buffer (50 mmol/L Tris-HCl pH 7.4, 150 mmol/L potassium chloride, 10 mmol/L magnesium chloride) containing 0.5 mg protein/mL of human liver microsomes. After the reaction, 50 μL of the reaction solution was added to 100 μL of a methanol/acetonitrile=1/1 (v/v) solution, mixed and centrifuged at 3000 rpm for 15 minutes. The compound of the present invention in the supernatant was quantified by LC/MS/MS, and a remaining amount of the compound of the present invention after the reaction was calculated, letting a compound amount at 0 minute reaction time to be 100%.

[2] = Solubility test (1% DMSO addition, pH 6.8 artificial intestinal juice); type: physicochemical; conditions: kinetic from dmso stock, 16 hours at 25° C.
Method: The solubility of the compound of the present invention was determined under 1% DMSO addition conditions. 10 mmol/L solution of the compound was prepared with DMSO, and 6 μL of the solution of the compound of the present invention was added to 594 μL of pH 6.8 artificial intestinal juice (118 mL of 0.2 mol/L NaOH test solution and water were added to 250 mL of 0.2 mol/L potassium dihydrogen phosphate test solution to reach 1000 mL). The mixture was left standing for 16 hours at 25° C., and the mixture was vacuum-filtered. The filtrate was two-fold diluted with methanol/water=1/1 (V/V), and the compound concentration in the filtrate was measured with HPLC or LC/MS/MS by the absolute calibration method. The dilution concentration and the dilution solvent were changed as necessary.

CYP2C9 = CYP2C9 (Homo sapiens (Human), UniProt P11712); assay: CYP inhibition test, CYP2C9; type: in vitro ADME; conditions: pooled human liver microsomes; tolbutamide methyl-hydroxylation; given as 'five kinds'
CYP2C9, sequence (P11712 whole entry): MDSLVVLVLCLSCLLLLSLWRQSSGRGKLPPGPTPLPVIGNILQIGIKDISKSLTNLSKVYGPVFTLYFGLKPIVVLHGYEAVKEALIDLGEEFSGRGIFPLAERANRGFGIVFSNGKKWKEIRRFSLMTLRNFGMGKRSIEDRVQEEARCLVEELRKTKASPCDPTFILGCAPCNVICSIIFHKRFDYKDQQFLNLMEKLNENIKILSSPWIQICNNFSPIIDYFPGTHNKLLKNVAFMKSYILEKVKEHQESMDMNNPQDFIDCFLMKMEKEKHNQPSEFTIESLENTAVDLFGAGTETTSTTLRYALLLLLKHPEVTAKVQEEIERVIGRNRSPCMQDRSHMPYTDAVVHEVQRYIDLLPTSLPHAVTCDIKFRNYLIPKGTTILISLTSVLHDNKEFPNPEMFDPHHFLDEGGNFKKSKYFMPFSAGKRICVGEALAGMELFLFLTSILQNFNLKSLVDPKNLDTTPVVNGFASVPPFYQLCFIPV
Source text: (§1) Using commercially available pooled human hepatic microsome, and employing, as markers, 7-ethoxyresorufin O-deethylation (CYP1A2), tolbutamide methyl-hydroxylation (CYP2C9), mephenytoin 4'-hydroxylation (CYP2C19), dextromethorphan 0-demethylation (CYP2D6), and terfenadine hydroxylation (CYP3A4) as typical substrate metabolism reactions of human main five CYP enzyme forms (CYP1A2, 2C9, 2C19, 2D6, 3A4), an inhibitory degree of each metabolite production amount by the compound of the present invention was assessed. The reaction conditions are as follows: substrate, 0.5 μmol/L ethoxyresorufin (CYP1A2), 100 μmol/L tolbutamide (CYP2C9), 50 μmol/L S-mephenitoin (CYP2C19), 5 μmol/L dextromethorphan (CYP2D6), 1 μmol/L terfenedine (CYP3A4); reaction time, 15 minutes; reaction temperature, 37° C.; enzyme, pooled human liver microsomes 0.2 mg protein/mL; concentrations of the compound of the present invention, 1, 5, 10, 20 μmol/L (four points). As a reaction solution, each five kinds of substrates, human liver microsomes, or compound of the present invention in 50 mmol/L Hepes buffer were added to a 96-well plate at the composition as described above, and NADPH, as a cofactor was added to initiate metabolism reactions. After the incubation at 37° C. for 15 minutes, a methanol/acetonitrile=1/[…]) solution was added to stop the reaction. After the centrifugation at 3000 rpm for 15 minutes, resorufin (CYP1A2 metabolite) in the supernatant was quantified by a fluorescent multilabel counter or LC/MS/MS, and tolbutamide hydroxide (CYP2C9 metabolite), mephenytoin 4' hydroxide (CYP2C19 metabolite), dextrorphan (CYP2D6 metabolite), and terfenadine alcohol (CYP3A4 metabolite) were quantified by LC/MS/MS. Addition of only DMSO being a solvent dissolving a drug to a reaction system was adopted as a control (100%). Remaining activity (%) was calculated. IC50 was calculated by reverse presumption by a logistic model using the concentration and an inhibition rate.

CYP2C19 = CYP2C19 (Homo sapiens (Human), UniProt P33261); assay: CYP inhibition test, CYP2C19; type: in vitro ADME; conditions: pooled human liver microsomes; mephenytoin 4′-hydroxylation; given as 'five kinds'
CYP2C19, sequence (P33261 whole entry): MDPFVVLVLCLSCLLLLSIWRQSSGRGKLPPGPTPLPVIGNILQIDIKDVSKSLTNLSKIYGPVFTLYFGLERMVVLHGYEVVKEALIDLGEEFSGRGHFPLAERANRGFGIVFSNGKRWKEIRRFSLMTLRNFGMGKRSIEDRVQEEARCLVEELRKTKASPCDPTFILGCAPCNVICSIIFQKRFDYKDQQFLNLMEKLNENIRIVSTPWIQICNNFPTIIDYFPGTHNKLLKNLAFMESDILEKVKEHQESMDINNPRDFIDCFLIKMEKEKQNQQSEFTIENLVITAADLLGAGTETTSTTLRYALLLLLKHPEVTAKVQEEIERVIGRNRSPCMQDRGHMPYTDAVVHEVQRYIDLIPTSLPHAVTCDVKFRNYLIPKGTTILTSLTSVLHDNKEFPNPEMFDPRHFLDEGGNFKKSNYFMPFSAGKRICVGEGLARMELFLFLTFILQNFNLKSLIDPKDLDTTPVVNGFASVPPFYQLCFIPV
Source text: as §1

CYP2D6 = CYP2D6 (Homo sapiens (Human), UniProt P10635); assay: CYP inhibition test, CYP2D6; type: in vitro ADME; conditions: pooled human liver microsomes; dextromethorphan O-demethylation; given as 'five kinds'
CYP2D6, sequence (P10635 whole entry): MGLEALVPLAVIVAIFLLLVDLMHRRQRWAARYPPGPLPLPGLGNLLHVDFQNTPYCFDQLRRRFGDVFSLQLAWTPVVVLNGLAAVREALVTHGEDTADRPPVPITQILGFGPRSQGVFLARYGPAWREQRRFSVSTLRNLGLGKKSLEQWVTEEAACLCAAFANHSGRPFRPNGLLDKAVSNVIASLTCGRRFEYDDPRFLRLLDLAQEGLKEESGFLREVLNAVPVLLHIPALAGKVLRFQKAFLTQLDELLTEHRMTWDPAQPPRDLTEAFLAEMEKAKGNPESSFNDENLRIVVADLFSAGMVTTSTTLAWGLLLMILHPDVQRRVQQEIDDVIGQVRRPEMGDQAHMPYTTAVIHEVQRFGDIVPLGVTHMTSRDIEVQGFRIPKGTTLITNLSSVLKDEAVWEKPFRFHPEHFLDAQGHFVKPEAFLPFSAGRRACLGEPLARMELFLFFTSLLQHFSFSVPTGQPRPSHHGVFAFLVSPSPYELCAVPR
Source text: as §1

CYP3A4 = CYP3A4 (Homo sapiens (Human), UniProt P08684); assay: CYP inhibition test, CYP3A4; type: in vitro ADME; conditions: pooled human liver microsomes; terfenadine hydroxylation; given as 'five kinds'
CYP3A4, sequence (P08684 whole entry): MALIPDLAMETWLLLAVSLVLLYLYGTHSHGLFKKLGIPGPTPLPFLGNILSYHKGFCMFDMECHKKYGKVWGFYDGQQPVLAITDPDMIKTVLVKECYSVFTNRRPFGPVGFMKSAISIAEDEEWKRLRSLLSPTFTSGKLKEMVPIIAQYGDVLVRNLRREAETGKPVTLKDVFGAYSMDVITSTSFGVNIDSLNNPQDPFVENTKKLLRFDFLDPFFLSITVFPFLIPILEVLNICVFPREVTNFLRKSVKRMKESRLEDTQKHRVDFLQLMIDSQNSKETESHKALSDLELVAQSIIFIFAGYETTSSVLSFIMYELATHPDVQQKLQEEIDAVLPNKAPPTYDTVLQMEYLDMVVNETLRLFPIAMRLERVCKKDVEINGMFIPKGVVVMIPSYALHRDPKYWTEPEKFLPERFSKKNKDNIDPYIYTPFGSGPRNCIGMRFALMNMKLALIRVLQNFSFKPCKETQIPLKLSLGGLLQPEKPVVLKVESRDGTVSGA
Source text: as §1

[3] = BA test (oral absorption); type: in vivo; conditions: plasma; mice or SD rats; from AUCs of oral and intravenous administration
Method: Materials and methods for experiments to evaluate oral absorption
(1) Animals: the mice or SD rats were used.
(2) Breeding conditions: the mice or SD rats were allowed to freely take solid food and sterilized tap water.
(3) Setting of dosage and grouping: Oral administration and intravenous administration were performed with a predetermined dosage. Grouping was set as below. (dosage changed per compound)
Oral administration: 1 to 30 mg/kg (n=2 to 3)
Intravenous administration: 0.5 to 10 mg/kg (n=2 to 3)
(4) Preparation of administration solution: Oral administration was performed in the form of a suspension or a solution. Intravenous administration was performed after solubilization.
(5) Routes of administration: Oral administration was performed mandatory into the stomach by oral sonde. Intravenous administration was performed from caudal vein or femoral vein by syringes with needle.
(6) Evaluation items: blood was collected over time, and the plasma concentration of the compound of the present invention was measured by LC/MS/MS.
(7) Statistical analysis: regarding the transition of the plasma concentration of the compound of the present invention, the area under the plasma concentration-time curve (AUC) was calculated by non-linear least squares program WinNonlin (registered trademark), and the bioavailability (BA) of the compound of the present invention was calculated from the AUCs of the oral administration group and intravenous administration group.

Compound	Remaining rate [1] [%]	solubility at 16 h [2] [µM]	IC50 (CYP2C9) [µM]	IC50 (CYP2C19) [µM]	IC50 (CYP2D6) [µM]	IC50 (CYP3A4) [µM]	bioavailability [3] [%]
Cc1ccc(-c2nn3c(c2NC(=O)CS(C)(=O)=O)C(=O)N[C@@]2(CCc4cc(OCC(F)(F)F)ccc42)C3)cc1 [Compound I-20]	74.5	–	> 20	> 20	> 20	> 20	63.4
CS(=O)(=O)CC(=O)Nc1c(CCC2CC2)nn2c1C(=O)N[C@@]1(CCc3cc(OCC(F)(F)F)ccc31)C2 [Compound I-46]	78.1	> 50	> 20	> 20	> 20	> 20	53.1
CS(=O)(=O)CC(=O)Nc1c(CCC(F)(F)F)nn2c1C(=O)N[C@@]1(CCc3cc(OCC(F)(F)F)ccc31)C2 [Compound I-58]	88.4	> 50	> 20	> 20	> 20	> 20	88.2

Second part, the compound after the results:

Remaining rate [1] [%]	solubility at 16 h [2] [µM]	IC50 (CYP2C9) [µM]	IC50 (CYP2C19) [µM]	IC50 (CYP2D6) [µM]	IC50 (CYP3A4) [µM]	bioavailability [3] [%]	Compound
92.4	> 50	> 20	> 20	> 20	> 20	55.1	Cc1ccc(-c2nn3c(c2NC(=O)CS(C)(=O)=O)C(=O)N[C@@]2(CCc4cc(OCC(F)(F)F)ccc42)C3)nc1 [Compound I-6]
103	41.8 (≈ 23.6 µg/mL)	> 20	> 20	> 20	> 20	–	N#Cc1ccc(-c2nn3c(c2NC(=O)CC(F)(F)F)C(=O)N[C@@]2(CCc4cc(OCC(F)(F)F)ccc42)C3)nc1 [Compound I-14]
